ChEMBL document CHEMBL1201862, “PubChem BioAssay data set” (2004)
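The compound was tested at five concentrations on cells cultured in 96-well plates, with a 48-hour exposure period. GI50: concentration for 50% inhibition of growth.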 The source made the active and inactive calls. No stated cut-off is given here; in the data, active = GI50 up to about 1.1 µM and inactive = higher.

Key:
Experiment in all cases: NCI anticancer screen, dose series, 48 h
EKVX = test system: EKVX
SN12C = test system: SN12C
SW-620 = test system: SW-620
UACC-257 = test system: UACC-257
SF-295 = test system: SF-295
OVCAR-4 = test system: OVCAR-4
OVCAR-3 = test system: OVCAR-3
CCRF-CEM = test system: CCRF-CEM
TK-10 = test system: TK-10
IGROV-1 = test system: IGROV-1
OVCAR-5 = test system: OVCAR-5
HT-29 = test system: HT-29
OVCAR-8 = test system: OVCAR-8
U-251 = test system: U-251
RPMI-8226 = test system: RPMI-8226
HCT-116 = test system: HCT-116
SR = test system: SR

Measured: GI50

COc1ccc(-c2c(N)[n+]([O-])c3cc(C)c(C)cc3[n+]2[O-])cc1OC
inactive: EKVX > 100 µM | SN12C > 100 µM | SW-620 74.8 µM | UACC-257 41.5 µM | SF-295 > 100 µM | OVCAR-4 > 100 µM | OVCAR-3 > 100 µM | CCRF-CEM 78 µM | TK-10 > 100 µM | IGROV-1 > 100 µM | OVCAR-5 > 100 µM | HT-29 73.1 µM | OVCAR-8 > 100 µM | U-251 67.3 µM | RPMI-8226 > 100 µM

CNS(=O)(=O)NN(C)S(=O)(=O)c1ccccc1
inactive: EKVX > 100 µM | SN12C > 100 µM | SW-620 > 100 µM | UACC-257 > 100 µM | SF-295 > 100 µM | HCT-116 > 100 µM | OVCAR-4 > 100 µM | CCRF-CEM > 100 µM | TK-10 > 100 µM | IGROV-1 > 100 µM | HT-29 > 100 µM | OVCAR-8 > 100 µM | U-251 > 100 µM | RPMI-8226 > 100 µM | SR > 100 µM

CN(CC(=O)O)S(=O)(=O)c1ccc2ccccc2c1
inactive: EKVX > 100 µM | SN12C > 100 µM | SW-620 > 100 µM | UACC-257 > 100 µM | SF-295 > 100 µM | OVCAR-4 > 100 µM | OVCAR-3 > 100 µM | CCRF-CEM > 100 µM | TK-10 > 100 µM | IGROV-1 > 100 µM | OVCAR-5 > 100 µM | HT-29 > 100 µM | OVCAR-8 > 100 µM | U-251 > 100 µM | RPMI-8226 > 100 µM

CC(Oc1ccc2c(-c3ccc(Cl)cc3)cc(=O)oc2c1)C(=O)O (stereo not given)
inactive: EKVX > 100 µM | SN12C > 100 µM | SW-620 > 100 µM | UACC-257 > 100 µM | SF-295 > 100 µM | HCT-116 > 100 µM | OVCAR-4 > 100 µM | OVCAR-3 > 100 µM | CCRF-CEM > 100 µM | TK-10 > 100 µM | IGROV-1 > 100 µM | HT-29 > 100 µM | OVCAR-8 > 100 µM | U-251 > 100 µM | SR > 100 µM

C#C[C@]1(O)CCC2C3CCc4cc(Oc5nc(F)nc(-n6c(C)nc7cc8ccccc8cc76)n5)ccc4C3CCC21C (stereo not given in full)
inactive: EKVX 9.35 µM | SN12C 37.5 µM | SW-620 35 µM | UACC-257 86.5 µM | SF-295 33.8 µM | HCT-116 32.8 µM | OVCAR-3 50.1 µM | CCRF-CEM 36.9 µM | TK-10 65.9 µM | IGROV-1 54.3 µM | HT-29 31 µM | OVCAR-8 39.1 µM | U-251 36.2 µM | RPMI-8226 38.2 µM

CC(C)(C)N/N=C(\C(=O)Nc1cccc(Cl)c1)C1C(=O)Nc2ccccc2[S+]1[O-] (stereo not given)
inactive: EKVX > 100 µM | SN12C > 100 µM | SW-620 > 100 µM | UACC-257 > 100 µM | SF-295 > 100 µM | HCT-116 > 10 µM | OVCAR-4 > 100 µM | OVCAR-3 > 100 µM | CCRF-CEM > 100 µM | TK-10 > 100 µM | IGROV-1 > 100 µM | HT-29 > 100 µM | OVCAR-8 > 100 µM | SR > 100 µM

CC1=Nn2c(nnc2-c2ccc(Cl)cc2)NC(C)(C)C1
inactive: EKVX > 100 µM | SW-620 > 100 µM | UACC-257 > 100 µM | SF-295 > 100 µM | OVCAR-4 > 100 µM | OVCAR-3 > 100 µM | CCRF-CEM > 100 µM | TK-10 > 100 µM | IGROV-1 > 100 µM | OVCAR-5 > 100 µM | HT-29 > 100 µM | U-251 > 100 µM | RPMI-8226 > 100 µM

O=c1n(-c2ccccc2)c(=O)n2n1C1C=CC2C2C(C1)C2(Cl)Cl (stereo not given)
inactive: EKVX > 100 µM | SN12C > 100 µM | SW-620 > 100 µM | UACC-257 > 100 µM | SF-295 > 100 µM | HCT-116 > 100 µM | OVCAR-4 > 100 µM | OVCAR-3 > 100 µM | CCRF-CEM > 100 µM | TK-10 > 100 µM | IGROV-1 > 100 µM | OVCAR-5 > 100 µM | OVCAR-8 > 100 µM | U-251 > 100 µM | SR > 100 µM

[O-][S+]1c2ccccc2N=C(c2ccc3ccccc3c2)CC1C1=CC=CCC1 (stereo not given)
inactive: EKVX 22.7 µM | SN12C 17.4 µM | SW-620 18.4 µM | UACC-257 18.3 µM | SF-295 17.7 µM | OVCAR-4 > 10 µM | OVCAR-3 16.9 µM | CCRF-CEM 7.19 µM | TK-10 22.2 µM | IGROV-1 13.2 µM | OVCAR-5 18.9 µM | HT-29 16.5 µM | OVCAR-8 20.3 µM | RPMI-8226 8.75 µM
